In article PMC7660650, “Chemical Starting Matter for HNF4α Ligand Discovery and Chemogenomics” (International Journal of Molecular Sciences, 2020):
Where “and” joins values, the source holds several entries; their conditions need not be identical. Identical values can stand only once. Like-named read-outs stand apart in the source and are kept apart here.

Molecular target: T1, Gal4-HNF4α (human HNF4α LBD) (Homo sapiens, UniProt P41235)
T1 construct: uniprot entry: P41235-1, residues 142-377; expressed in transfected cells; host or cells: HEK293T
T1 sequence (P41235 142-377): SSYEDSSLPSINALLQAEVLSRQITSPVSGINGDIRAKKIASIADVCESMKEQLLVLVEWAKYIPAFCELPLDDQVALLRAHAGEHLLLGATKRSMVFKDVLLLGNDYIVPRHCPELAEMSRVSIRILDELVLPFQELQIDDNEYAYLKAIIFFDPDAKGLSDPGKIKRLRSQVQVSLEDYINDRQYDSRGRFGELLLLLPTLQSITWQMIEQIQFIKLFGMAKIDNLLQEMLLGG
Experiment: Hybrid Gal4-HNF4α reporter gene assay in transiently transfected HEK293T cells
Type: cell-based

[1] = Table S1, primary screening, 50 µM

Structure (SMILES) | HNF4a-screening_activity_(mean_of_n=2) [1] | HNF4a-screening_activity_(mean_of_n=2)
CNS(=O)(=O)CCc1ccccc1 [Prestw-Frag-3368, CNS(=O)(=O)CCc1ccccc1] | 1.162 | 
NCCc1ccc(F)cc1F [Prestw-Frag-3746, NCCc1ccc(F)cc1F] | 1.162 | 
Cc1cn(-c2cc(N)cc(C(F)(F)F)c2)cn1 [Prestw-Frag-3241, Cc1cn(cn1)-c1cc(N)cc(c1)C(F)(F)F] | 1.061 | 
CCN(CC)C(=O)/C=C/c1ccccc1 [Prestw-Frag-3088, CCN(CC)C(=O)\C=C\c1ccccc1] | 0.9663 | 
NC(=O)[C@H](N)c1ccccc1 [Prestw-Frag-1099, N[C@@H](C(N)=O)c1ccccc1] | 1.079 | 
CC(O)(c1ccccc1)c1ccccn1 (stereo not shown) [Prestw-Frag-2237, CC(O)(c1ccccc1)c1ccccn1] | 0.9394 | 
FC(F)(F)c1nnc2n1CCNC2 [Prestw-Frag-3253, FC(F)(F)c1nnc2CNCCn12] | 1.371 | 
OC(Cn1ccnc1)c1ccc(Cl)cc1Cl (stereo not shown) [Prestw-Frag-1182, OC(Cn1ccnc1)c1ccc(Cl)cc1Cl] | 1.1 | 
c1ccc2cnccc2c1 [Prestw-Frag-2493, c1ccc2cnccc2c1] | 1.292 | 
O=C1CN(Cc2ccccc2)CCN1 [Prestw-Frag-3459, O=C1CN(Cc2ccccc2)CCN1] | 1.076 | 
COC(=O)C(c1ccccc1)c1ccccc1 [Prestw-Frag-1013, COC(=O)C(c1ccccc1)c1ccccc1] | 1.409 and 1.217 | 
CCCCOc1cc(C(=O)OC)ccc1N [Prestw-Frag-2253, CCCCOc1cc(ccc1N)C(=O)OC] | 0.8932 | 
COc1ccc2c(c1)CCC(C(=O)O)C2 (stereo not shown) [Prestw-Frag-3739, COc1ccc2CC(CCc2c1)C(O)=O] | 0.6963 | 
OCCn1cncn1 [Prestw-Frag-3101, OCCn1cncn1] | 0.9898 | 
Cc1cc(=O)n(-c2ccccc2)[nH]1 [Prestw-Frag-3742, Cc1cc(=O)n([nH]1)-c1ccccc1] | 0.8727 | 
Cn1nnnc1S [Prestw-Frag-1032, Cn1nnnc1S] | 1.09 | 
Cc1c(N)cccc1C(F)(F)F [Prestw-Frag-1189, Cc1c(N)cccc1C(F)(F)F] | 1.319 | 
CS(=O)(=O)c1ccc(N)cc1 [Prestw-Frag-1214, CS(=O)(=O)c1ccc(N)cc1] | 1.202 | 
CNC(=O)c1cc(Cl)c(N)cc1OC [Prestw-Frag-3754, CNC(=O)c1cc(Cl)c(N)cc1OC] | 1.064 | 
CCN(CCCCO)C(C)Cc1ccc(OC)cc1 (stereo not shown) [Prestw-Frag-2440, CCN(CCCCO)C(C)Cc1ccc(OC)cc1] | 1.361 | 
O=c1cc(O)c2ccccc2o1 [Prestw-Frag-1131, Oc1cc(=O)oc2ccccc12] | 1.185 | 
Oc1ccc2c(c1)CCC2 [Prestw-Frag-3713, Oc1ccc2CCCc2c1] | 1.011 | 

Structure (SMILES) | HNF4a-screening_activity_(mean_of_n=2) [1] | HNF4a-screening_activity_(mean_of_n=2)
CCOc1ccccn1 [Prestw-Frag-2477, CCOc1ccccn1] | 1.372 | 
CN1CCN(c2ccc(N)cc2)CC1 [Prestw-Frag-3670, CN1CCN(CC1)c1ccc(N)cc1] | 1.015 | 
OCC1CCCNC1 (stereo not shown) [Prestw-Frag-3728, OCC1CCCNC1] | 1.103 | 
NC(=O)COc1ccccc1 [Prestw-Frag-2578, NC(=O)COc1ccccc1] | 1.034 | 
c1ccc(C2COCCN2)cc1 (stereo not shown) [Prestw-Frag-3705, C1COCC(N1)c1ccccc1] |  | 0.9945
Clc1ccc(CNc2ccccn2)cc1 [Prestw-Frag-2356, Clc1ccc(CNc2ccccn2)cc1] | 1.16 | 
O=C(Cc1ccccc1F)C1CC1 [Prestw-Frag-3198, Fc1ccccc1CC(=O)C1CC1] | 1.083 | 
Cc1ccc(C#N)c(=O)[nH]1 [Prestw-Frag-2669, Cc1ccc(C#N)c(=O)[nH]1] | 0.9816 | 
CC(C)(C)NCC(O)c1ccccc1 (stereo not shown) [Prestw-Frag-1929, CC(C)(C)NCC(O)c1ccccc1] | 1.143 | 
CCN1CCCC1CN (stereo not shown) [Prestw-Frag-3671, CCN1CCCC1CN] | 1.171 | 
O=c1ccn([C@@H]2C[C@H](O)[C@@H](CO)O2)c(=O)[nH]1 [Prestw-Frag-2769, OC[C@H]1O[C@@H](C[C@@H]1O)n1ccc(=O)[nH]c1=O] | 0.8958 | 
O=c1[nH]nc2ccccn12 [Prestw-Frag-1673, O=c1[nH]nc2ccccn12] | 1.045 | 
CCC(C(=O)OCCN(CC)CC)c1ccccc1 (stereo not shown) [Prestw-Frag-1343, CCC(C(=O)OCCN(CC)CC)c1ccccc1] | 0.9028 and 1.004 | 
COc1ccc(OC)c(C(C)O)c1 (stereo not shown) [Prestw-Frag-2208, COc1ccc(OC)c(c1)C(C)O] | 1.098 | 
O=C(O)C(c1ccccc1)c1ccccc1 [Prestw-Frag-3711, OC(=O)C(c1ccccc1)c1ccccc1] | 1.082 | 
c1ccc(N2CCN(c3ccccc3)CC2)cc1 [Prestw-Frag-3257, C1CN(CCN1c1ccccc1)c1ccccc1] | 1.063 | 
CCOC(=O)c1cccnc1 [Prestw-Frag-3382, CCOC(=O)c1cccnc1] | 1.112 | 
CCC1=C(C)CN(C(=O)NCCc2ccccc2)C1=O [Prestw-Frag-1075, CCC1=C(C)CN(C(=O)NCCc2ccccc2)C1=O] | 1.214 | 
CNCCc1ccc(OC)c(OC)c1 [Prestw-Frag-1446, CNCCc1ccc(OC)c(OC)c1] | 1.187 and 1.106 | 
Nc1ccn([C@H]2C[C@H](O)[C@@H](CO)O2)c(=O)n1 [Prestw-Frag-3264, Nc1ccn([C@H]2C[C@H](O)[C@@H](CO)O2)c(=O)n1] | 1.086 | 
CS(=O)(=O)NC(Cc1ccccc1)C(=O)O (stereo not shown) [Prestw-Frag-3362, CS(=O)(=O)NC(Cc1ccccc1)C(O)=O] | 1.241 | 
NC(=O)c1nc[nH]c1N [Prestw-Frag-2268, NC(=O)c1nc[nH]c1N] | 0.9961 | 

Structure (SMILES) | HNF4a-screening_activity_(mean_of_n=2) [1] | HNF4a-screening_activity_(mean_of_n=2)
COc1ccc(S(=O)(=O)N2CCNCC2)cc1 [Prestw-Frag-3313, COc1ccc(cc1)S(=O)(=O)N1CCNCC1] | 1.073 | 
c1ccc(-n2ccnc2)cc1 [Prestw-Frag-3744, c1cn(cn1)-c1ccccc1] | 1.014 | 
CC1(c2ccccc2)NC(=O)NC1=O (stereo not shown) [Prestw-Frag-2652, CC1(NC(=O)NC1=O)c1ccccc1] | 0.789 | 
CC(C)NCC(O)c1ccccc1 (stereo not shown) [Prestw-Frag-2168, CC(C)NCC(O)c1ccccc1] | 1.078 | 
CCN(CC)CCOc1ccccc1O [Prestw-Frag-1345, CCN(CC)CCOc1ccccc1O] | 0.7766 and 1.111 | 
OC1c2ccccc2CCc2ccccc21 [Prestw-Frag-2600, OC1c2ccccc2CCc2ccccc12] | 0.7017 | 
Oc1ccccc1N1CCNCC1 [Prestw-Frag-3738, Oc1ccccc1N1CCNCC1] | 0.9708 | 
CNC(=O)c1cnc(C)cn1 [Prestw-Frag-1350, CNC(=O)c1cnc(C)cn1] | 0.7205 and 0.8855 | 
Cc1cc(N)no1 [Prestw-Frag-1647, Cc1cc(N)no1] | 0.9773 | 
NS(=O)(=O)c1ccc(C(=O)O)cc1 [Prestw-Frag-2123, NS(=O)(=O)c1ccc(cc1)C(O)=O] | 0.9355 | 
Cc1ccccc1NC(=O)C(C)N (stereo not shown) [Prestw-Frag-1856, CC(N)C(=O)Nc1ccccc1C] | 1.062 and 1.114 | 
COc1ccc(O)cc1O [Prestw-Frag-2499, COc1ccc(O)cc1O] | 1.183 | 
Cc1nc(-c2ccccc2)cs1 [Prestw-Frag-3743, Cc1nc(cs1)-c1ccccc1] | 1.125 | 
CCN(CC)CCOC(=O)c1ccccc1 [Prestw-Frag-1735, CCN(CC)CCOC(=O)c1ccccc1] | 0.9109 and 1.027 | 
Nc1nc2ccccc2o1 [Prestw-Frag-2256, Nc1nc2ccccc2o1] | 0.8277 | 
CCN(CC)CCNC(=O)c1ccccc1O [Prestw-Frag-1086, CCN(CC)CCNC(=O)c1ccccc1O] | 1.563 and 0.9485 | 
NCC(O)COc1cccc2ccccc12 (stereo not shown) [Prestw-Frag-1389, NCC(O)COc1cccc2ccccc12] | 0.8528 and 1.218 | 
COc1ccc(CC(C)N)cc1 (stereo not shown) [Prestw-Frag-3342, COc1ccc(CC(C)N)cc1] | 1.446 | 
O=C1Cc2cc(F)ccc2N1 [Prestw-Frag-3667, Fc1ccc2NC(=O)Cc2c1] | 0.8142 | 
Fc1cccc(F)c1N1CCNCC1 [Prestw-Frag-1806, Fc1cccc(F)c1N1CCNCC1] | 0.9867 and 1.428 | 
